Measurements: US11938129B2, “Methods and compositions for the treatment of vascular disease” (THE GENERAL HOSPITAL CORPORATION, priority 2018, dated 2024)

How the values were obtained:
[1] = tested on: aortic aneurysm in Fbn1C1039G/+ mice; assay: experimental aortic aneurysm in Fbn1C1039G/+ mice: echocardiographic aortic dimensions; format: in vivo, mouse; details: Fbn1C1039G/+ mice treated from two to six months of life, drinking water
Text: Dimensions from each animal represent averages of measurements made on still frames in systole of the maximal internal diameter of the aortic valve annulus, aortic sinuses, sinotubular junction, or ascending aorta by a cardiologist blinded to genotype. The aorta was imaged using a standard parasternal long axis view. Based on historic controls, the mean diameter of the wild type aortic root at 4 months of life is 1.73+/-0.2 mm while in our disease model (Fbn1ci°[…]/+) the mean diameter is 2.15+/-0.3 mm. […] Nair hair removal cream was used on all mice the day prior to echocardiograms. All echocardiograms were performed on awake, unsedated mice using the Visualsonics Vevo imaging system and a 30 MHz transducer. All CT images were acquired using an Inveon small animal micro CT (Siemens Medical Solutions Inc., Malven, Pa.). All mice received intravenous iodinated contrast (Isovue-370, Bracco Diagnostic Inc.) at 20 pL/min during the scan. […] Images were visualized and analyzed in OsiriX software. Cohorts of 8-week-old wild-type or Fbn1cw3gGi+ mice were treated with oral administration in drinking water of either Losartan or GSK343 for 20 weeks (FIG. 5). […] Then 200 mL of drinking water was supplemented with 250 pL of GSK343 stock solution. […] Aortic dimensions were monitored monthly by echocardiograms as mentioned above.

VSMC phenotypic markers = assay: expression of VSMC phenotypic markers in aortas of treated Fbn1C1039G/+ mice; format: in vivo, mouse; details: aortas of Fbn1C1039G/+ mice treated from two to six months
Description: Total RNA was prepared from tissue or primary cells using RNeasy kit (Qiagen) following the manufacturer's protocol. The cDNA was prepared by reverse transcription, and expression of SMC contractile genes were analyzed by qRT-PCR on SYBR green system (Applied Biosystem, Foster city, CA). 50 pL of plasma from wild-type or Fbn1cl° 39G1+ mice were used to prepare total RNA as mentioned above. Expression results were analyzed by the ddCT method and GAPDH (encoding glyceraldehyde-3-phosphate dehydrogenase) was used as a housekeeping gene. Fold change were calculated by taking the average over all the control samples as the baseline. […] The supernatant was removed and the vesicular fraction was resuspended with 750 pL of TRizol reagent followed by RNA extraction using the RNeasy kit (Qiagen) according to the manufacturer's protocol. Cohorts of 8-week-old wild-type or Fbn1cw3gGi+ mice were treated with oral administration in drinking water of either Losartan or GSK343 for 20 weeks (FIG. 5). […] Then 200 mL of drinking water was supplemented with 250 pL of GSK343 stock solution. Control group for either drug treatment was given with equal volumes of sterile water. Bottles containing either losartan or GSKS343 were replaced with fresh water supplied with drugs every 3 days. For experiments described in FIG. 5A-5C, 16-week-old wild-type or Fbnicw3gGi+ mice were treated for 8 weeks and as described above. Additionally, a group of mice were given a combination of both losartan and GSK343 at the same concentrations as of other single drug treatments. Aortic dimensions were monitored monthly by echocardiograms as mentioned above.

[2] = tested on: SM22a expression in TAA VSMCs; assay: in vitro GSK343 treatment of isolated TAA VSMCs, SM22a immunoblotting after TGF-β1; format: cell-based, human; details: GSK343, TGF-β1 10 ng/mL
Description: Primary human aortic smooth muscle cells (HAoSMC) from healthy donors were purchased from Cell Applications Inc., California, USA (Cat. #354K-05a). Primary aneurysm aortic SMCs were isolated from fresh TAA tissue at the moment of surgery by standard explant of the aortic media. Mouse aortic SMCs were isolated by standard explant of the ascending section of the aortas from wild-type or Fbn1ci°39G1+ mice. Smooth muscle cell identity was assessed by immunofluorescence staining of contractile markers including SM22a, Calponin, Smoothelin and Vinculin. In order to preserve cell identity all experiments were carried out at passages 1-5 (Timraz et al., 2016). Human and murine SMCs were grown with smooth muscle cell growth medium from Cell Applications Inc. (Cat. #311-500). VSMCs at 60-70% confluence were supplemented with opti-MEM 24 hrs before treatment with complete growing media containing GSK343 at a concentration of […] for 4 days. Fresh media containing GSK343 was supplied daily. For GSK343/TGF81 (10 ng/mL) combo treatment, cells were first treated with complete media containing GSK343 at concentration of 10 nM during the 2 first days followed by GSK343/TGFβ combination treatment the next 2 days. Prior to cellular collection cells were washed with sterile PBS and RNA or protein extraction were performed as described above.

[3] = tested on: other histone methyltransferases; details: cited from earlier work

CCCc1cc(C)[nH]c(=O)c1CNC(=O)c1cc(-c2ccnc(N3CCN(C)CC3)c2)cc2c1cnn2C(C)C [GSK343]
aortic dimensions [1]: ability to improve aortic dimensions | contractile elements (VSMC phenotypic markers): better recovery of contractile elements | synthetic markers (Col1a1, Col3a1, Gja1, Mmp2) (VSMC phenotypic markers): inability to repress synthetic markers | SM22a expression after stimulation with recombinant TGF-β1 [2]: recovered the ability to induce SM22a expression | selectivity against other histone methyltransferases [3]: ≥ 1000 fold
